From ChEMBL document CHEMBL1124209, “Phosphonoformate and phosphonoacetate derivatives of 5-substituted 2'-deoxyuridines: synthesis and antiviral activity” (1988)
Values after ≈ are worked out from the molar mass of the structure shown.

Key:
Assay type in all cases: functional
Human alphaherpesvirus 1 [1] = assay: Minimum inhibitory concentration causing 25% inhibition of cytopathic effect induced by Herpes simplex virus-1 (K979) in HEp-2 cells
Human alphaherpesvirus 1 [2] = assay: Minimum inhibitory concentration causing 25% inhibition of cytopathic effect induced by herpes simplex virus (HSV)-1 (K979) in vero cells.
Human alphaherpesvirus 1 [3] = assay: Minimum inhibitory concentration causing 25% inhibition of cytopathic effect induced by Herpes simplex virus(HSV) -1 (thymidine kinase deficient) in HEp-2 cells
Human alphaherpesvirus 1 [4] = assay: Minimum inhibitory concentration causing 25% inhibition of cytopathic effect induced by Herpes simplex virus(HSV) -1 (thymidine kinase deficient) in vero cells
Human alphaherpesvirus 1 [5] = assay: Minimum inhibitory concentration causing 25% inhibition of cytopathic effect induced by Herpes simplex virus-1 (Brand) in vero cells
Human alphaherpesvirus 1 [6] = assay: Minimum inhibitory concentration causing 25% inhibition cytopathic effect induced by Herpes simplex virus-1 (Brand) in HEp-2 cells
Human alphaherpesvirus 2 [7] = assay: Minimum inhibitory concentration causing 25% inhibition of cytopathic effect induced by Herpes simplex virus(HSV) -2 (thymidine kinase deficient) in HEp-2 cells
Human alphaherpesvirus 2 [8] = assay: Minimum inhibitory concentration causing 25% inhibition of cytopathic effect induced by Herpes simplex virus(HSV) -2 (thymidine kinase deficient) in vero cells
Human alphaherpesvirus 1 [9] = assay: Mean survival time in HSV-1 infected mice, after intraperitoneal administration of 0.5 mg/kg of compound
Human alphaherpesvirus 1 [10] = assay: Mean survival time in HSV-1 infected mice, after intraperitoneal administration of 1 mg/kg of compound
Human alphaherpesvirus 1 [11] = assay: Mean survival time in HSV-1 infected mice, after intraperitoneal administration of 5 mg/kg of compound
Human alphaherpesvirus 1 [12] = assay: Mean survival time in HSV-1 infected mice, after peroral administration of 10 mg/kg of compound; details: route oral
Human alphaherpesvirus 1 [13] = assay: Mean survival time in HSV-1 infected mice, after peroral administration of 1 mg/kg of compound; details: route oral
Human alphaherpesvirus 1 [14] = assay: Mean survival time in HSV-1 infected mice, after peroral administration of 5 mg/kg of compound; details: route oral
Mus musculus [15] = assay: Cumulative lesions in HSV-1 infected mice, after administration of 0.1 % of compound intracutaneously
Mus musculus [16] = assay: Cumulative lesions in HSV-1 infected mice, after administration of 0.3 % of compound intracutaneously
Mus musculus [17] = assay: Mean duration of lesions in HSV-1 infected mice, after administration of 0.1 % of compound intracutaneously
Mus musculus [18] = assay: Mean duration of lesions in HSV-1 infected mice, after administration of 0.3 % of compound intracutaneously
Human alphaherpesvirus 1 [19] = assay: Cumulative mortality in percent of HSV-1 infected mice, after intraperitoneal administration of 0.5 mg/kg of compound
Human alphaherpesvirus 1 [20] = assay: Cumulative mortality in percent of HSV-1 infected mice, after intraperitoneal administration of 1 mg/kg of compound
Human alphaherpesvirus 1 [21] = assay: Cumulative mortality in percent of HSV-1 infected mice, after intraperitoneal administration of 5 mg/kg of compound
Human alphaherpesvirus 1 [22] = assay: Cumulative mortality in percent of HSV-1 infected mice, after peroral administration of 1 mg/kg of compound; details: route oral
Human alphaherpesvirus 1 [23] = assay: Cumulative mortality in percent of HSV-1 infected mice, after peroral administration of 5 mg/kg of compound; details: route oral
Human alphaherpesvirus 1 [24] = assay: Cumulative mortality in percent of HSV-1 infected mice, after peroral administration of 10 mg/kg of compound; details: route oral
Oryctolagus cuniculus [25] = species: Oryctolagus cuniculus; assay: Minimum cytotoxic concentration causing toxic effects on uninfected cells in rabbit
Human alphaherpesvirus 2 [26] = assay: Minimum inhibitory concentration causing 25% inhibition cytopathic effect induced by Herpes simplex virus(HSV) -2 (thymidine kinase deficient) in vero cells
Human alphaherpesvirus 1 [27] = assay: Minimum inhibitory concentration causing 25% inhibition cytopathic effect induced by Herpes simplex virus(HSV) -1 (thymidine kinase deficient) in HEp-2 cells
Mus musculus [28] = assay: Cumulative mortality in percent of HSV-1 infected mice, after intraperitoneal administration of 25 mg/kg
Mus musculus [29] = assay: Cumulative mortality in percent of HSV-1 infected mice, after peroral administration of 100 mg/kg of compound; details: route oral
Mus musculus [30] = assay: Mean survival time in HSV-1 infected mice, after intraperitoneal administration of 25 mg/kg
Mus musculus [31] = assay: Mean survival time in HSV-1 infected mice, after peroral administration of 100 mg/kg; details: route oral
Human alphaherpesvirus 1 [32] = assay: Minimum inhibitory concentration causing 50% inhibition of cytopathic effect induced by HSV-1 in PRK cells
Human alphaherpesvirus 1 [33] = assay: Minimum inhibitory concentration causing 50% inhibition of cytopathic effect induced by HSV-1(thymidine kinase deficient) in PRK cells
Human alphaherpesvirus 2 [34] = assay: Minimum inhibitory concentration causing 50% inhibition of cytopathic effect induced by HSV-2 in PRK cells
Human alphaherpesvirus 1 [35] = assay: Minimum inhibitory concentration causing 50% inhibition of cytopathic effect induced by HSV-1 (thymidine kinase deficient) in PRK cells
Human alphaherpesvirus 2 [36] = assay: Minimum inhibitory concentration causing 25% inhibition cytopathic effect induced by Herpes simplex virus(HSV) -2 (thymidine kinase deficient) in HEp -2 cells
Oryctolagus cuniculus [37] = species: Oryctolagus cuniculus; assay: Minimum cytotoxic concentration of compound causing toxic effects on uninfected cells
Human alphaherpesvirus 1 [38] = assay: Minimum inhibitory concentration of compound causing 50% inhibition of cytopathic effect induced by HSV-1 (thymidine kinase deficient) in PRK cells
Human alphaherpesvirus 1 [39] = assay: Minimum inhibitory concentration of compound causing 50% inhibition of cytopathic effect induced by HSV-1 in PRK cells
Human alphaherpesvirus 2 [40] = assay: Minimum inhibitory concentration of compound causing 50% inhibition of cytopathic effect induced by HSV-2 in PRK cells

| Compound | MIC (Human alphaherpesvirus 1 [1]) [µM] | MIC (Human alphaherpesvirus 1 [2]) [µM] | MIC (Human alphaherpesvirus 1 [3]) [µM] | MIC (Human alphaherpesvirus 1 [4]) [µM] | MIC (Human alphaherpesvirus 1 [5]) [µM] | MIC (Human alphaherpesvirus 1 [6]) [µM] | MIC (Human alphaherpesvirus 2 [7]) [µM] | MIC (Human alphaherpesvirus 2 [8]) [µM] | MTC (Oryctolagus cuniculus [25]) [µM] | further results |
| --- | --- | --- | --- | --- | --- | --- | --- | --- | --- | --- |
| CCOC(=O)CP(=O)(OC)OC[C@H]1O[C@@H](n2cc(CCCl)c(=O)[nH]c2=O)C[C@@H]1O (some centres not stated) | > 220 | > 220 | > 220 | 66 (≈ 30 µg/mL) | 6.6 (≈ 3 µg/mL) | 66 (≈ 30 µg/mL) | > 220 | > 220 | 726 | MST (Human alphaherpesvirus 1 [9]): 13.9 days; MST (Human alphaherpesvirus 1 [10]): 11.9 days; MST (Human alphaherpesvirus 1 [11]): 11.8 days; MST (Human alphaherpesvirus 1 [12]): 11.5 days; MST (Human alphaherpesvirus 1 [13]): 8.9 days; MST (Human alphaherpesvirus 1 [14]): 12.8 days; lesions (Mus musculus [15]): 83; lesions (Mus musculus [16]): 58; MDL (Mus musculus [17]): 10.6 days; MDL (Mus musculus [18]): 6 days; CMP (Human alphaherpesvirus 1 [19]): 58; CMP (Human alphaherpesvirus 1 [20]): 92; CMP (Human alphaherpesvirus 1 [21]): 83; CMP (Human alphaherpesvirus 1 [22]): 100; CMP (Human alphaherpesvirus 1 [23]): 75; CMP (Human alphaherpesvirus 1 [24]): 67 |
| CCOC(=O)P(=O)(OC)OC[C@H]1O[C@@H](n2cc(I)c(=O)[nH]c2=O)C[C@@H]1O (some centres not stated) | 5.9 (≈ 2.97 µg/mL) | 5.9 (≈ 2.97 µg/mL) |  | 19.8 (≈ 9.98 µg/mL) | 0.6 (≈ 0.303 µg/mL) | 2 (≈ 1.01 µg/mL) | 5.9 (≈ 2.97 µg/mL) |  | 198 | MIC (Human alphaherpesvirus 2 [26]): 5.9 µM (≈ 2.97 µg/mL); MIC (Human alphaherpesvirus 1 [27]): 2 µM (≈ 1.01 µg/mL) |
| CCOC(=O)P(=O)(OC)OC[C@H]1O[C@@H](n2cc(CCCl)c(=O)[nH]c2=O)C[C@@H]1O (some centres not stated) | 22.7 (≈ 10 µg/mL) | 227 (≈ 100 µg/mL) | > 227 | 68.1 (≈ 30 µg/mL) | 0.7 (≈ 0.309 µg/mL) | 0.7 (≈ 0.309 µg/mL) | > 227 | > 227 | 749 | MST (Human alphaherpesvirus 1 [9]): 16.7 days; MST (Human alphaherpesvirus 1 [10]): 15.6 days; MST (Human alphaherpesvirus 1 [11]): 20 days; MST (Human alphaherpesvirus 1 [12]): 18.9 days; MST (Human alphaherpesvirus 1 [13]): 13.9 days; MST (Human alphaherpesvirus 1 [14]): 16 days; lesions (Mus musculus [15]): 33; lesions (Mus musculus [16]): 17; MDL (Mus musculus [17]): 3.3 days; MDL (Mus musculus [18]): 1.4 days; CMP (Human alphaherpesvirus 1 [19]): 33; CMP (Human alphaherpesvirus 1 [20]): 42; CMP (Human alphaherpesvirus 1 [21]): 0; CMP (Human alphaherpesvirus 1 [22]): 63; CMP (Human alphaherpesvirus 1 [23]): 38; CMP (Human alphaherpesvirus 1 [24]): 13 |
| Nc1nc2c(ncn2COCCO)c(=O)[nH]1 [ACYCLOVIR] | 13.2 (≈ 2.97 µg/mL) | 1.3 (≈ 0.293 µg/mL) | 440 (≈ 99.1 µg/mL) | 44 (≈ 9.91 µg/mL) | 0.01 (≈ 0.00225 µg/mL) | 4.4 (≈ 0.991 µg/mL) | 440 (≈ 99.1 µg/mL) | 132 (≈ 29.7 µg/mL) | 440 | CMP (Mus musculus [28]): 15; CMP (Mus musculus [29]): 10; MST (Mus musculus [30]): 18.6 days; MST (Mus musculus [31]): 18.9 days |
| O=c1[nH]c(=O)n([C@H]2C[C@H](O)[C@@H](CO)O2)cc1/C=C/Br [BRIVUDINE] |  |  |  |  |  |  |  |  | >1302 | MIC (Human alphaherpesvirus 1 [32]): 0.07 µM (≈ 0.0233 µg/mL); MIC (Human alphaherpesvirus 1 [33]): 1300 µM (≈ 434 µg/mL); MIC (Human alphaherpesvirus 2 [34]): 32.6 µM (≈ 10.9 µg/mL); CMP (Mus musculus [29]): 30 |
| O=C(O)P(=O)(O)O [FOSCARNET] | 238 (≈ 30 µg/mL) | 238 (≈ 30 µg/mL) | 794 (≈ 100 µg/mL) | 79.4 (≈ 10 µg/mL) | 238 (≈ 30 µg/mL) | 794 (≈ 100 µg/mL) |  | 79.4 (≈ 10 µg/mL) | 2.619 | MIC (Human alphaherpesvirus 1 [35]): 317 µM (≈ 39.9 µg/mL); MIC (Human alphaherpesvirus 1 [32]): 238 µM (≈ 30 µg/mL); MIC (Human alphaherpesvirus 2 [34]): 159 µM (≈ 20 µg/mL); MIC (Human alphaherpesvirus 2 [36]): 238 µM (≈ 30 µg/mL); MTC (Oryctolagus cuniculus [37]): >3174 µM |
| O=C(O)CP(=O)(O)O [FOSFONET] | 71.4 (≈ 10 µg/mL) | 71.4 (≈ 10 µg/mL) | 214 (≈ 30 µg/mL) | 71.4 (≈ 10 µg/mL) | 71.4 (≈ 10 µg/mL) | 214 (≈ 30 µg/mL) | 214 (≈ 30 µg/mL) | 71.4 (≈ 10 µg/mL) | 2.356 | MIC (Human alphaherpesvirus 1 [38]): 286 µM (≈ 40 µg/mL); MIC (Human alphaherpesvirus 1 [39]): 286 µM (≈ 40 µg/mL); MIC (Human alphaherpesvirus 2 [40]): 143 µM (≈ 20 µg/mL); MTC (Oryctolagus cuniculus [37]): >2856 µM |
| O=c1[nH]c(=O)n([C@H]2C[C@H](O)[C@@H](CO)O2)cc1I [IDOXURIDINE] | 0.8 (≈ 0.283 µg/mL) | 2.8 (≈ 0.991 µg/mL) |  | 8.4 (≈ 2.97 µg/mL) | 0.3 (≈ 0.106 µg/mL) | 0.8 (≈ 0.283 µg/mL) | 8.4 (≈ 2.97 µg/mL) |  | 281 | MIC (Human alphaherpesvirus 2 [26]): > 281 µM; MIC (Human alphaherpesvirus 1 [27]): 0.8 µM (≈ 0.283 µg/mL) |
